Laboratory results taken from patent US8445291B2, “Method for detecting target substance, and tag, DNA, vector, probe and detection kit for use therewith” (National University Corporation Tokyo Medical and Dental …, priority 2007, dated 2013).
pKd: −log10 of the molar value.

Assays:
[1] = Circular dichroism spectroscopy of tag peptide, probe peptide and tag-probe mixture; type: physicochemical; conditions: for probe peptides that formed an α-helix structure: probe peptide alone; for tag peptides that formed an α-helix structure: tag peptide alone
Method: The circular dichroism spectrum of the tag polypeptides and the probe polypeptides of Examples 1 to 3 were measured.
The structures of the tag peptide, the probe peptide and the tag-probe complex were analyzed by circular dichroism spectroscopy.
In each of FIGS. 3A to 3C, the horizontal axis represents wavelength used for measurement whereas the vertical axis represents molar residue ellipticity.

[2] = test system: probe peptide; assay: Fluorescence titration of probe peptide with tag peptide (HEPES buffer), incl. Job's plot; type: binding; conditions: for fluorescence wavelength ultimately shifted to on addition of tag peptide: 0.5 μM probe peptide, 0.1 to 2.0 equivalents of tag peptide; for pKd: tag peptide to probe peptide, theoretical formula assuming 1 to 1 interaction, fluorescence at 505 nm, read-out: dissociation constant Kd
Method: Fluorescence titration was performed for the tag polypeptides and the probe polypeptides of Examples 1 to 3.
In the fluorescence titration, the rate of change of the fluorescence intensity at 505 nm was plotted against the concentration of the tag peptide and the dissociation constant was calculated from a theoretical formula assuming 1 to 1 binding of the tag peptide to the probe peptide.
In Example 1, the fluorescence intensity at 505 nm in the presence of 1 equivalent of tag peptide was 18 times as high as that measured in the absence of the tag peptide.
Also in the fluorescence titration, with the total concentration of the tag peptide and the probe peptide being fixed at 1.0 μM, the ratio of the respective concentrations of the tag peptide and the probe peptide was varied and the fluorescence intensity at 505 nm was measured. The measured fluorescence intensity was plotted against the ratio of the tag peptide concentration to the total concentration of the tag peptide and the probe peptide and was analyzed by the theoretical formula assuming 1 to 1 binding of the tag peptide to the probe peptide.

[3] = test system: probe peptide; assay: Fluorescence titration in cell lysate; type: binding; conditions: HeLa cell lysate, 0.1 to 4.0 equivalents of tag peptide
Method: Fluorescence titration was performed for the tag polypeptides and the robe polypeptides of Example 1 in a cell lysate.
10 mL of a HeLa cell culture solution containing 1.0×10^6 cells/mL were dispensed in a centrifugal tube and the cells were centrifuged for 5 minutes at 1000 rpm to obtain a pellet of HeLa cells. The pellet was dispersed in 1 mL HEPES buffer and the dispersion was sonicated for 10 minutes. Subsequently, the dispersion was filtered through a membrane filter to remove undesired materials and thus give a cell lysate. The probe peptide was dissolved in the cell lysate to a concentration of […]. To this solution, a tag peptide solution was added dropwise until the solution contained 0.1 to 4.0 equivalents of the tag peptide. The resulting solution was subjected to fluorescence spectroscopy.
In FIG. 9, the horizontal axis represents fluorescence wavelength whereas the vertical axis represents fluorescence intensity

[4] = test system: tag peptide represented by structural formula (8); assay: Crosslink reaction of chloroacetylated probe peptide with tag peptide; type: biochemical; conditions: 10 minutes after start, 1.0 μM tag and 1.0 μM probe, 25° C., pH 7.2
Method: The probe peptide for crosslink reaction obtained in Example 7 was used to perform a crosslink reaction.
The probe peptide was crosslinked to a tag peptide represented by the following structural formula (8). The tag polypeptide is identical to that used in Example 1.
To a 1.0 μM tag peptide solution (50 mM HEPES buffer (pH 7.2, 10 mM NaCl)), the probe peptide was added to a concentration of 1.0 μM and the reaction was carried out at 25° C.-1 mL samples were collected from the reaction mixture after 1, 5, 10, 15, 20 and 30 minutes. 1 mL of a 10% aqueous acetic acid solution was added to each sample to quench the reaction. The samples were analyzed by HPLC using a C18 reversed-phase analytical column (4.6×250 mm). The crosslinked product was identified by ESI-TOF MS. The yield of the reaction was calculated from the peak area ratio of HPLC.
In FIG. 10, the horizontal axis represents elapsed time after addition of the probe peptide whereas the vertical axis represents the yield of the crosslink reaction.

[5] = test system: fused protein of DsRed and PKC having at its N terminal end a tag polypeptide of sequence (A); assay: Imaging of PKC in cytoplasm of CHO.K1 cells through formation of tag-probe complex (observation of NBD); type: cell-based
Method: CHO.K1 cells expressing a fused protein of DsRed and PKC having at its N terminal end a tag polypeptide of sequence (A) as indicated below were prepared using Lipofectamin LTX (Invitrogen).
Subsequently, a permeabilization buffer (20 mM Hepes, pH 7.4, 140 mM KCl, 50 μg/mL saponin, 5 mM oxalic acid) was added to the thus-prepared CHO.K1 cells. After left to stand on ice for 10 min, the cells were washed with PBS, followed by incubating on ice for 20 min in PBS. Thereafter, the cells were incubated in PBS at room temperature for 2 min and then 37° C. for 2 min. Further, the cells were incubated at 37° C. for 30 min in a conditioned medium (Ham's F12) to which a probe indicated by sequence (B) (probe concentration: 1 μM (Final conc.)) had been added.
The medium was changed to a DMEM with no phenol red, and then, the cells were observed by a fluorescence microscope (IX81 (Olympus), objective lens: 20 times) at predetermined emission wavelength (490 nm to 510 nm).
(§1) Separately, before treated with the permeabilization buffer, the above-prepared CHO.K1 cells were treated for 10 min with 10 mM DMSO containing PDBu (phorbol 12,13 dibutyrate; final concentration: 10 μM). The cells were observed by the fluorescence microscope similar to the above.

[6] = test system: fused protein of DsRed and PKC having at its N terminal end a tag polypeptide indicated by sequence (A); assay: Localization of PKC in cytoplasm (DsRed fluorescence); type: cell-based; conditions: CHO.K1 cells treated for 10 min, final concentration 10 μM; 515 nm to 560 nm
Method: as §1
The following was used as a control; a group which was not treated with PDBu, and CHO.K1 cells to which only DIC was introduced (note that DIC is a vector used for introducing into cells the above-mentioned fused protein of DsRed and PKC having at its N terminal end a tag polypeptide indicated by sequence (A). The cells were observed as mentioned above at predetermined wavelength (515 nm to 560 nm). The results are shown in FIG. 11.

Compound | probe peptides that formed an α-helix structure [1] | tag peptides that formed an α-helix structure [1] | tags and probes that formed an α-helix structure in the tag-probe mixture [1] | fluorescence wavelength ultimately shifted to on addition of tag peptide [2] | pKd [2] | fluorescence intensity at 505 nm relative to that measured in the absence of the tag peptide ([2]; in the presence of 1 equivalent of tag peptide) | comparison of fluorescence intensity among Examples 1 to 3 ([2]; overlapped spectra of highest peaks, FIG. 5) | spectral changes of probe peptide as tag peptide was added [3] | yield of the crosslink reaction [4] | NBD-derived fluorescence in cells ([5]; 1 μM probe, permeabilized CHO.K1 cells, around 510 nm) | localization of NBD-derived fluorescence ([5]; CHO.K1 cells treated for 10 min, final concentration 10 μM) | localization of DsRed-derived fluorescence [6]
ALKKELEAGKKELEALKKELAGGCGGALEKELEALEKEGEALEKELA [Example 3] | 53% | 18% | 41% | 526 nm | 6.12 |  |  |  |  |  |  | 
ALKKELEAAKKELEALKKELAGGCGGALEKELEALEKEAEALEKELA [Example 1] | 53% | 58% | 71% | 505 nm | 7.76 | 18 times | highest fluorescence intensity | substantially the same spectral changes as in HEPES buffer |  |  |  | 
ClAc-{Gly}{Ala-Leu-Lys-Lys-Lys-Leu-Glu}{Ala-Leu-Lys-Lys-Lys-Dap(NBD)-Glu}{Ala-Leu-Lys-Lys-Lys-Leu-Ala} [Example 7] |  |  |  |  |  |  |  |  | at least 80% | increase in fluorescence intensity |  | 
CCCC(=O)O[C@@H]1[C@@H](C)[C@@]2(O)[C@@H](C=C(CO)C[C@]3(O)C(=O)C(C)=C[C@@H]23)[C@@H]2C(C)(C)[C@]12OC(=O)CCC [PDBu, phorbol 12,13 dibutyrate, reference compound] |  |  |  |  |  |  |  |  |  |  | locally observed | locally observed
ALKKELEALKKELEALKKELAGGCGGALEKELEALEKELEALEKELA [Example 2] | 53% | 81% | 78% | 516 nm | 7.61 |  |  |  |  |  |  | 
